Experimental data from publication PMC5822683 (Inflammation, 2014).
Where a SMILES comes first, the peptide text is derived from it.

Key:
[1] = test system: LPS-stimulated whole human blood; conditions: 40 μg/ml, LPS 1 μg/ml, 3 h at 37 °C
[2] = test system: TNF-α-stimulated whole human blood; conditions: 40 μg/ml, human TNF-α 10 ng/ml, 6 h at 37 °C, n=4 (Fig. 2)
[3] = test system: LPS-stimulated isolated human neutrophils
[4] = test system: IL-8-stimulated human neutrophils
[5] = test system: LPS-stimulated isolated human neutrophils; conditions: 50 % donor plasma, 40 μg/ml
[6] = test system: LPS-stimulated isolated human leukocytes; conditions: 40 μg/ml, LPS 1 μg/ml, n=3
rodents = conditions: compared with L-4F doses studied here (Fig. S4)
[7] = test system: animal models of acute inflammation / severe sepsis; conditions: cited from earlier work
[8] = compared with human apoA-I; ref [37]; cited from earlier work
[9] = test system: lipopolysaccharide-binding protein (LBP); conditions: ref [21]; cited from earlier work
leukocytes = conditions: ref [24]; cited from earlier work
primary human monocytes = conditions: ref [28]; cited from earlier work
[10] = test system: human neutrophils stimulated by septic patient serum; conditions: ref [24], cited from earlier work
paraoxonase 1 = conditions: ref [20], [41]; cited from earlier work
[11] = statement in the discussion, no reference given; cited from earlier work
[12] = ref [21], [48]; cited from earlier work
[13] = test system: patients with high-risk cardiovascular disease; conditions: selected groups of patients with high-risk cardiovascular disease; ref [55], [56]; cited from earlier work
[14] = test system: human monocyte-derived macrophages; conditions: ref [29]; cited from earlier work

CC(=O)N[C@@H](CC(=O)O)C(=O)N[C@@H](Cc1c[nH]c2ccccc12)C(=O)N[C@@H](Cc1ccccc1)C(=O)N[C@@H](CCCCN)C(=O)N[C@@H](C)C(=O)N[C@@H](Cc1ccccc1)C(=O)N[C@@H](Cc1ccc(O)cc1)C(=O)N[C@@H](CC(=O)O)C(=O)N[C@@H](CCCCN)C(=O)N[C@H](C(=O)N[C@@H](C)C(=O)N[C@@H](CCC(=O)O)C(=O)N[C@@H](CCCCN)C(=O)N[C@@H](Cc1ccccc1)C(=O)N[C@@H](CCCCN)C(=O)N[C@@H](CCC(=O)O)C(=O)N[C@@H](C)C(=O)N[C@@H](Cc1ccccc1)C(N)=O)C(C)C [L-4F] (Ac-DWFKAFYDKVAEKFKEAF-NH2)
effect on inflammatory response to LPS (TNF-α and IL-6) ([1]; ELISA, n=4 (Fig. 1)): inhibits inflammatory response to LPS in blood to an equal extent | plasma level of TNF-α ([1]; n=4/group, *P<0.05 vs. saline-treated LPS (Fig. 1A)): reduces plasma levels of TNF-α | plasma level of IL-6 ([1]; n=4/group, *P<0.05 vs. saline-treated LPS (Fig. 1B)): reduces plasma levels of TNF-α (A) and IL-6 | effect on TNF-α-mediated elevation of plasma IL-6 [2]: does not reduce plasma levels of IL-6 | effect of agent alone on CD11b expression and lipid raft abundance [3]: Neither L-4F alone nor apoA-I alone affects CD11b expression and lipid raft abundance | effect on LPS-increased CD11b expression [3]: inhibits this effect (P<0.05 vs. LPS, for L-4F at all time points and for apoA-I at 30 min, Fig. 3A, B) | effect on LPS-increased lipid raft abundance [3]: inhibits this effect (P<0.05 vs. LPS, for L-4F at 1 and 3 h and for apoA-I at 1 h, Fig. 3C, D) | effect on IL-8-induced increase of CD11b expression [4]: only minimal effect | effect on IL-8-induced increase of lipid rafts abundance [4]: only minimal effect | effect on LPS-induced TNF-α levels ([5]; LPS 1 μg/ml, 30 min, 1 h, 3 h (Fig. 5A)): inhibit this effect (P<0.05 vs. LPS, for 30 min and 1 h, Fig. 5A) | effect on LPS-mediated MPO elevation ([5]; LPS 1 μg/ml, 30 min, 1 h, 3 h (Fig. 5B)): only inhibitory effect of L-4F reaches statistical significance (P<0.05 vs. LPS, for 30 min and 3 h, Fig. 5B) | effect on LPS-mediated IL-6 increase ([5]; LPS 1 μg/ml, 3 h, cell media, n=3, ELISA (Fig. 6)): significantly inhibits LPS-mediated IL-6 increase (P<0.05 vs. LPS) | comparison with apoA-I, LPS-mediated increase in IL-6 levels ([5]; LPS-stimulated neutrophils): tended to be superior in inhibiting LPS-mediated increase in IL-6 levels | effect on LPS-mediated chemiluminescence (rate and peak) ([6]; 5 or 50 % donor plasma, lucigenin 10 μM, 3 h at 37 °C, both P<0.05 vs. LPS (Fig. 9)): inhibits the rate as well as peak of LPS-mediated chemiluminescence | inhibition of oxidative stress, L-4F vs. apoA-I ([6]; 50 % plasma, 3 h, NS vs. apoA-I): the inhibitory effects of L-4F and apoA-I are similar | tolerability in rodents (rodents): rodents were able to tolerate L-4F in much higher doses | dose with high efficiency in animal models of severe sepsis ([7]; L-4F, ref [22]–[24]): 10 mg/kg | effect in cecal ligation and puncture model of polymicrobial sepsis ([7]; cecal ligation and puncture, ref [22]): has protective effects | effect in animal models of acute inflammation ([7]; ref [22]–[25]): reduces inflammatory response and improves survival | binding affinity for pro-inflammatory oxidized lipids [8]: binds pro-inflammatory oxidized lipids with higher affinity than human apoA-I | competition with LBP for binding with LPS [9]: compete with lipopolysaccharide-binding protein (LBP) for binding with LPS | inhibition of binding of LPS to leukocytes (leukocytes): inhibit binding of LPS to leukocytes | cholesterol efflux and lipid raft abundance (primary human monocytes): stimulate cholesterol efflux and reduce lipid raft abundance | effective concentration ([10]; concentration at which effective, L-4F): 40 µg/mL | activation of neutrophils by septic patient serum [10]: inhibits activation of human neutrophils stimulated by septic patient serum | HDL-associated paraoxonase 1 activity (paraoxonase 1): increasing HDL-associated paraoxonase 1 activity | water solubility [11]: high water solubility | interaction with LPS (co-localization of Bodipy-LPS and ^14C-L-4F in FPLC fractions) [12]: interaction of LPS and L-4F was strongly suggested

Ac-DWFKAFYDKVAEKFKEAF-NH2 [4F]
anti-inflammatory properties ([7]; ref [19]–[21]): exerts strong anti-inflammatory properties | safety profile in patients [13]: acceptable safety profile | disruption of rafts and responsiveness of macrophages to LPS [14]: attenuating the responsiveness of macrophages to LPS
